The source of these data is patent US12673918B2, “Small molecule RPN13 inhibitors with antitumor properties” (The Johns Hopkins University, priority 2019, dated 2026).

Data set [1] concerns SSC90. The conditions noted are these: human.
The subject of data set [2] is C33A. As to the kind of experiment: MTT cytotoxicity assay, C33A. Format: cell-based. The note with it: Homo sapiens, C-33-A, Table 3, 48 hr, Cervical (HPV −ve). (In general: Tetrazolium assays rely on reduction of a dye to a coloured formazan, in cell work by metabolically active cells.)
Procedure: The cytotoxic efficacy of selected compounds was assessed against multiple myeloma (MM) cell lines, as this is a validated clinical target for the licensed proteasome inhibitors.
(§1) Cell lines and cytotoxicity assays: All cell lines were obtained from the American Type Culture Collection (ATCC) and cultured in the specified medium supplemented with 10% fetal bovine serum, 100 IU/mL penicillin, and 100 μg/mL streptomycin at 37° C. in a humidified 5% CO2/95% air incubator. […] To assess drug cytotoxicity, cells were seeded at 2,500 cells/well (10,000 cells/well for MM lines) in 100 μL medium in 96-well plate and after 24 treated with compounds for 72 h, incubated according to the manufacturer's protocol with the Thiazolyl Blue Tetrazolium Bromide (Sigma, M2128) and A570 measured using a Benchmark Plus microplate spectrophotometer (BIO-RAD). IC50 data was analyzed by Graphpad Prism software. In the chirality studies the cells were treated with compounds for 48 h, and the cells were incubated and measured via the preceeding protocols.
Data set [3] addresses RPN13 (Homo sapiens, UniProt Q16186). As to the kind of experiment: RA183B competition / direct biotin labelling of RPN13 in cell lysate. The data set is classed as binding. The note with it: SKOV3 cell lysate pre-treated with compound, labelled with RA183B. The procedure: It has been shown preciously that RA183 adducts Cysteine 88 of RPN13 (13). […] Samples were subjected to SDS-PAGE and transferred to a PVDF membrane. The membrane was probed with HRP-Streptavidin antibody, and the blot developed using chemiluminescence.
A direct labelling assay in cell lysate of ES2, a human ovarian cancer-derived cell line, using RA413B and RA183B was performed.
Biotin labeling Assay: Clarified cell lysate in MPER buffer was pretreated with streptavidin magna beads for 45 min at 4° C. to deplete non-specific biotinylated proteins in the cell lysate. The beads were separated and 40 μL of the pre-cleared cell lysate was incubated with compounds (20 μM) for 45 min at 4° C., and then treated with RA183B, RA190B, or RA413SB (10 μM) for 45 min at 4° C. Next, the samples were mixed with Laemmli sample buffer (BioRad) and boiled for 5 min. […] (24 V). The membrane was blocked with 5% BSA in PBST for 1 hr at RT and washed for 20 minutes (3× with PBST). Then the membrane was probed with HRP-streptavidin (1:10,000 in PBST) for 1 hr at RT, washed for 30 min (3× with PBST), and developed using HyGLO chemiluminescent detection reagent (Denville) for biotin detection.

The subject of data set [4] is DU145. As to the kind of experiment: MTT cytotoxicity assay, DU145. The note with it: Homo sapiens, DU-145, read-out: cytotoxicity IC50 DU145.
Procedure: as §1

Sequence of RPN13 (Q16186 whole entry): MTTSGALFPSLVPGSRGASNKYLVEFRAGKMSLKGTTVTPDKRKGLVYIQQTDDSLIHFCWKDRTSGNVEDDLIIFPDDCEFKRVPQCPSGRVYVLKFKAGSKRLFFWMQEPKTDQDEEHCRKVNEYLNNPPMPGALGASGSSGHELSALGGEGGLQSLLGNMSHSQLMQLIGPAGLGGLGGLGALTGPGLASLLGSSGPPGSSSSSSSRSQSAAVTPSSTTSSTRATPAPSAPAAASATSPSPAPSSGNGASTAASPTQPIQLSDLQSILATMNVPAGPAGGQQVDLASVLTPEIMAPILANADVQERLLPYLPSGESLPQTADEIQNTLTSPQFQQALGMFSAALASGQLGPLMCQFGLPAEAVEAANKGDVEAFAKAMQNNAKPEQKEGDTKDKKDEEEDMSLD

What is called IC50 is the concentration at which inhibition is half-maximal. In data set [1], `C[C@H]1/C(=C\c2ccc([N+](=O)[O-])cc2)C(=O)/C(=C/c2ccc([N+](=O)[O-])cc2)CN1C(=O)[C@@H](N)Cc1ccccc1` displayed an IC50 of 125 nM.

In the case of `O=C(CCl)N[C@@H](Cc1ccccc1)C(=O)N1C/C(=C\c2ccc([N+](=O)[O-])cc2)C(=O)/C(=C/c2ccc([N+](=O)[O-])cc2)C1` [RA375], the IC50 in data set [2] was determined as 167 nM.

As for `CC1/C(=C\c2ccc([N+](=O)[O-])cc2)C(=O)/C(=C/c2ccc([N+](=O)[O-])cc2)CN1C(=O)[C@H](Cc1ccccc1)NC(=O)CCl` (stereo partly shown) [RA414], the “competition with RA183B binding to RPN13” value in data set [3] is “inhibited by pre-incubation with RA414”. Further, the IC50 in data set [4] was determined as 17 nM.
